Assay results published in patent US20260091026A1, “METHODS OF TREATING INFLAMMATORY DISEASES” (INTERLINE THERAPEUTICS, INC., priority 2023, published 2026).

Tests used:
[1] = target: T1, RIPK2 (KD)/XIAP (BIR2) (Homo sapiens, UniProt O43353); test: RIPK2-XIAP binding competition PPI assay (TR-FRET); conditions: for Emax: 50 nM of GSK583 = -100% activity, read-out: PPI Amax; for IC50: GST-RIPK2 / His-XIAP (BIR2)-avi, 120 min at 23° C.
T1 construct: made in house; host or cells: baculovirus-infected Sf9 cells
T1 sequence (O43353 1-310): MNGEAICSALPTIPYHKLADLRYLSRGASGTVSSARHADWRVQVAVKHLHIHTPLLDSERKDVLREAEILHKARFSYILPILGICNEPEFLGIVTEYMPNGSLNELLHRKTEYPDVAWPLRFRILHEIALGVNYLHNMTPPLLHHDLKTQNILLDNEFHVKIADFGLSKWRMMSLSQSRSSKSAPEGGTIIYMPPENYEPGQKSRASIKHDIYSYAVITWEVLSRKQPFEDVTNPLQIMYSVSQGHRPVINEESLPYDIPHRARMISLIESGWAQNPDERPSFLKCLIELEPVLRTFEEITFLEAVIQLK
Method in brief: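 After 2 h at 23 °C, complex formation was read as the 665/520 nm emission ratio (337 nm excitation), scaled between uninhibited reaction and 50 nM GSK583. The mix held 1 nM human RIPK2 kinase fragment-GST, 25 nM His-tagged XIAP BIR2 and Tb/XL665 antibodies in pH 7.5 Tris buffer containing vanadate and glycerophosphate.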

[2] = test system: THP1-Dual cells, NF-κB pathway (SEAP); test: THP-1 Dual cell SEAP assay (L18-MDP stimulated); format: cell-based; conditions: Homo sapiens, 10 ng/mL L18-MDP, 20-24 h, SEAP readout, read-out: IFNγ THP1 IC50
Method in brief: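 IC50 values come from non-linear fits of % inhibition of SEAP, measured as QUANTI-Blue optical density (620-655 nm, 2 h) in media-blanked supernatants. These were taken from THP1-Dual cells treated with compound for 30 min before overnight exposure to 10 ng/mL L18-MDP final at 37 °C.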

SMILES	Emax [1] [%]	IC50 [1] [nM]	IC50 [2] [nM]
CCn1nc(-c2cnc3cc(OCCO)c(S(=O)(=O)C(C)(C)C)cn23)cc1C(=O)N[C@H](C)c1ccn(C)n1 [Example 122, (R)-3-(6-(tert-butylsulfonyl)-7-(2-hydroxyethoxy)imidazo[1,2-a]pyridin-3-yl)-1-ethyl-N-(1-(1-methyl-1H-pyrazol-3-yl)ethyl)-1H-pyrazole-5-carboxamide]	≥ 80	10 to 100	< 100
CCn1nc(-c2cnc3cc(OCCO)c(S(=O)(=O)C(C)(C)C)cn23)cc1C(=O)N[C@@H](C)c1ccn(C)n1 [Example 123, (S)-3-(6-(tert-butylsulfonyl)-7-(2-hydroxyethoxy)imidazo[1,2-a]pyridin-3-yl)-1-ethyl-N-(1-(1-methyl-1H-pyrazol-3-yl)ethyl)-1H-pyrazole-5-carboxamide]	≥ 80	100 to 1000	> 2500
CCn1nc(-c2cnc3cc(OC)c(S(=O)(=O)C(C)(C)C)cn23)cc1C(=O)N[C@@H](C)c1ccn(C)n1 [Example 124, (S)-3-(6-(tert-butylsulfonyl)-7-methoxyimidazo[1,2-a]pyridin-3-yl)-1-ethyl-N-(1-(1-methyl-1H-pyrazol-3-yl)ethyl)-1H-pyrazole-5-carboxamide]	≥ 80	100 to 1000	> 2500
CCn1nc(-c2cnc3cc(OC)c(S(=O)(=O)C(C)(C)C)cn23)cc1C(=O)N[C@H](C)c1ccn(C)n1 [Example 125, (R)-3-(6-(tert-butylsulfonyl)-7-methoxyimidazo[1,2-a]pyridin-3-yl)-1-ethyl-N-(1-(1-methyl-1H-pyrazol-3-yl)ethyl)-1H-pyrazole-5-carboxamide]	≥ 80	10 to 100	< 100
CCn1nc(-c2cnc3cc(OCCO)c(S(=O)(=O)C(C)(C)C)cn23)cc1C(=O)NCc1ncc(C)s1 [Example 126, 3-(6-(tert-butylsulfonyl)-7-(2-hydroxyethoxy)imidazo[1,2-a]pyridin-3-yl)-1-ethyl-N-((5-methylthiazol-2-yl)methyl)-1H-pyrazole-5-carboxamide]	≥ 80	< 10	< 100
CCn1nc(-c2cnc3cc(OCCO)c(S(=O)(=O)C(C)(C)C)cn23)cc1C(=O)NCc1nccs1 [Example 127, 3-(6-(tert-butylsulfonyl)-7-(2-hydroxyethoxy)imidazo[1,2-a]pyridin-3-yl)-1-ethyl-N-(thiazol-2-ylmethyl)-1H-pyrazole-5-carboxamide]	≥ 80	< 10	< 100
CCn1nc(-c2cnc3cc(OCCO)c(S(=O)(=O)C(C)(C)C)cn23)cc1C(=O)NCc1ccsn1 [Example 128, 3-(6-(tert-butylsulfonyl)-7-(2-hydroxyethoxy)imidazo[1,2-a]pyridin-3-yl)-1-ethyl-N-(isothiazol-3-ylmethyl)-1H-pyrazole-5-carboxamide]	≥ 80	< 10	< 100
CCn1nc(-c2cnc3cc(OCCO)c(S(=O)(=O)C(C)(C)C)cn23)cc1C(=O)NCc1cc(C)sn1 [Example 129, 3-(6-(tert-butylsulfonyl)-7-(2-hydroxyethoxy)imidazo[1,2-a]pyridin-3-yl)-1-ethyl-N-((5-methylisothiazol-3-yl)methyl)-1H-pyrazole-5-carboxamide]	≥ 80	< 10	< 100
CCn1nc(-c2cnc3cc(OCCO)c(S(=O)(=O)C(C)(C)C)cn23)cc1C(=O)N[C@H](C)c1ncc(C)s1 [Example 130, (R)-3-(6-(tert-butylsulfonyl)-7-(2-hydroxyethoxy)imidazo[1,2-a]pyridin-3-yl)-1-ethyl-N-(1-(5-methylthiazol-2-yl)ethyl)-1H-pyrazole-5-carboxamide]	≥ 80	< 10	< 100
CCn1nc(-c2cnc3cc(OCCO)c(S(=O)(=O)C(C)(C)C)cn23)cc1C(=O)N[C@@H](C)c1ncc(C)s1 [Example 131, (S)-3-(6-(tert-butylsulfonyl)-7-(2-hydroxyethoxy)imidazo[1,2-a]pyridin-3-yl)-1-ethyl-N-(1-(5-methylthiazol-2-yl)ethyl)-1H-pyrazole-5-carboxamide]	≥ 80	10 to 100	500 to 2500
CCn1nc(-c2cnc3cc(OCCO)c(S(=O)(=O)C(C)(C)C)cn23)cc1C(=O)N[C@H](C)c1cc(C)sn1 [Example 132, (R)-3-(6-(tert-butylsulfonyl)-7-(2-hydroxyethoxy)imidazo[1,2-a]pyridin-3-yl)-1-ethyl-N-(1-(5-methylisothiazol-3-yl)ethyl)-1H-pyrazole-5-carboxamide]	≥ 80	< 10	< 100
CCn1nc(-c2cnc3cc(OCCO)c(S(=O)(=O)C(C)(C)C)cn23)cc1C(=O)N[C@@H](C)c1cc(C)sn1 [Example 133, (S)-3-(6-(tert-butylsulfonyl)-7-(2-hydroxyethoxy)imidazo[1,2-a]pyridin-3-yl)-1-ethyl-N-(1-(5-methylisothiazol-3-yl)ethyl)-1H-pyrazole-5-carboxamide]	≥ 80	100 to 1000	500 to 2500
CCn1nc(-c2cnc3cc(OCCO)c(S(=O)(=O)C(C)(C)C)cn23)cc1C(=O)N[C@H](C)c1cc(C)ccn1 [Example 134, (R)-3-(6-(tert-butylsulfonyl)-7-(2-hydroxyethoxy)imidazo[1,2-a]pyridin-3-yl)-1-ethyl-N-(1-(4-methylpyridin-2-yl)ethyl)-1H-pyrazole-5-carboxamide]	≥ 80	10 to 100	100 to 500
CCn1nc(-c2cnc3cc(OCCO)c(S(=O)(=O)C(C)(C)C)cn23)cc1C(=O)N[C@@H](C)c1cc(C)ccn1 [Example 135, (S)-3-(6-(tert-butylsulfonyl)-7-(2-hydroxyethoxy)imidazo[1,2-a]pyridin-3-yl)-1-ethyl-N-(1-(4-methylpyridin-2-yl)ethyl)-1H-pyrazole-5-carboxamide]	≥ 80	> 1000	> 2500
C[C@@H](NC(=O)c1cc(-c2cnc3cc(OCCO)c(S(=O)(=O)C(C)(C)C)cn23)nn1C1CC1)c1ncccn1 [Example 136, (R)-3-(6-(tert-butylsulfonyl)-7-(2-hydroxyethoxy)imidazo[1,2-a]pyridin-3-yl)-1-cyclopropyl-N-(1-(pyrimidin-2-yl)ethyl)-1H-pyrazole-5-carboxamide]	≥ 80	< 10	< 100
CC(C)n1nc(-c2cnc3cc(OCCO)c(S(=O)(=O)C(C)(C)C)cn23)cc1C(=O)N[C@H](C)c1ncccn1 [Example 137, (R)-3-(6-(tert-butylsulfonyl)-7-(2-hydroxyethoxy)imidazo[1,2-a]pyridin-3-yl)-1-isopropyl-N-(1-(pyrimidin-2-yl)ethyl)-1H-pyrazole-5-carboxamide]	≥ 80	< 10	< 100
COCCn1nc(-c2cnc3cc(OCCO)c(S(=O)(=O)C(C)(C)C)cn23)cc1C(=O)N[C@H](C)c1ncccc1F [Example 138, (R)-3-(6-(tert-butylsulfonyl)-7-(2-hydroxyethoxy)imidazo[1,2-a]pyridin-3-yl)-N-(1-(3-fluoropyridin-2-yl)ethyl)-1-(2-methoxyethyl)-1H-pyrazole-5-carboxamide]	≥ 80	10 to 100	100 to 500
